Test results taken from BindingDB's records for doi:10.1021/jm070645a (Rockefeller University, 2007).

Biological target: Mitogen-activated protein kinase 1 (Homo sapiens, UniProt P28482)
Assay: Radiological Kinase Inhibition Assay
Settings: pH 7.5; 22 °C
Experimental: Kinase activity was assayed for autophosphorylation and phosphorylation of MBP with radio-labeled gamma-32P. IC50 values were calculated from binding curves using LSW Data Analysis Tool Box version 1.1.1 in MicroSoft Excel.

Chain of Mitogen-activated protein kinase 1 (P28482 whole entry): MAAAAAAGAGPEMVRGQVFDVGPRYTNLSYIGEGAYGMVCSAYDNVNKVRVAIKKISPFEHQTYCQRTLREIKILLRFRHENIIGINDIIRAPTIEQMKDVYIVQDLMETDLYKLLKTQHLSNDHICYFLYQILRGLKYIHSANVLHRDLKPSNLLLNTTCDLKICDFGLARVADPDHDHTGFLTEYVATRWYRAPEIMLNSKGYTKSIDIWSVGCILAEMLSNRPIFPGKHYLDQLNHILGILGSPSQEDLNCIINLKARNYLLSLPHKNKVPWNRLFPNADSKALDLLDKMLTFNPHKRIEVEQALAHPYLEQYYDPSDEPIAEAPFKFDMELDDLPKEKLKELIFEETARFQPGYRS

| Compound | IC50 [µM] |
| --- | --- |
| O=C1NC(=O)C(=Cc2ccc(Sc3ccc(Cl)cc3)c([N+](=O)[O-])c2)C(=O)N1 [5-({4-[(4-chlorophenyl)sulfanyl]-3-nitrophenyl}methylidene)pyrimidine-2,4,6(1H,3H,5H)-trione] | 53 |
| O=C1c2ccccc2C(=O)c2cc(S(=O)(=O)Nc3cccc([N+](=O)[O-])c3)ccc21 [N-(3-nitrophenyl)-9,10-dioxo-9,10-dihydroanthracene-2-sulfonamide] | > 200 |
